# Patent publication US20130184338A1, “PHENYLPROPYL CARBAMATE DERIVATIVES FOR USE IN PREVENTING OR TREATING MULTIPLE SCLEROSIS” (Bio-Pharm Solutions Co., Ltd., priority 2011, published 2013)
# System: male mice (ICR)
# Assay: Muscle relaxation: residence time on rotarod rotating at fixed speed (15 r.p.m.)
# Format: in vivo
# Conditions: Mus musculus, ip, read-out: MR test ED50, II = Fixed 15 r.p.m. Rotarod
row,SMILES,ED50 [mg/kg]
1,"CC[C@H](OC(N)=O)[C@@H](O)c1ccccc1I [Compound 67, 1-(2-iodophenyl)-(S)-1-hydroxybutyl-(S)-2-carbamate]",30.2
2,"C[C@H](OC(N)=O)[C@@H](O)c1ccccc1I [Compound 65, 1-(2-iodophenyl)-(S)-1-hydroxypropyl-(S)-2-carbamate]",28
3,"C[C@@H](OC(N)=O)[C@H](O)c1ccccc1I [Compound 66, 1-(2-iodophenyl)-(R)-1-hydroxypropyl-(R)-2-carbamate]",67.9

# Same assay, conditions: Mus musculus, ip; intraperitoneal, at time of maximum effect; 50% of activity vs vehicle only; read-out: MR test ED50, II = Fixed 15 r.p.m. Rotarod
row,SMILES,ED50 [mg/kg]
1,"C[C@@H](OC(N)=O)[C@H](O)c1ccccc1Cl [Compound 2, 1-(2-chlorophenyl)-(R)-1-hydroxypropyl-(R)-2-carbamate]",76.5
2,"CNC(=O)OC(C)C(O)c1ccccc1Cl (racemic) [Compound 29, 1-(2-chlorophenyl)-1-hydroxypropyl-2-N-methylcarbamate]",41
3,"CCCNC(=O)O[C@@H](C)[C@@H](O)c1ccccc1Cl [Compound 16, 1-(2-chlorophenyl)-(S)-1-hydroxypropyl-(S)-2-N-propylcarbamate]",61.6
4,"CC(C)NC(=O)O[C@H](C)[C@H](O)c1ccccc1Cl [Compound 24, 1-(2-chlorophenyl)-(R)-1-hydroxypropyl-(R)-2-N-isopropylcarbamate]",44.3
5,"CC(C)NC(=O)O[C@@H](C)[C@@H](O)c1ccccc1Cl [Compound 17, 1-(2-chlorophenyl)-(S)-1-hydroxypropyl-(R)-2-N-isopropylcarbamate]",66.4
6,"C[C@@H](OC(=O)NC1CC1)[C@H](O)c1ccccc1Cl (single isomer, unassigned) [Compound 25]",18.3
7,"C[C@@H](OC(N)=O)[C@@H](O)c1ccccc1Cl [Compound 4, 1-(2-chlorophenyl)-(S)-1-hydroxypropyl-(R)-2-carbamate]",65
8,"CNC(=O)O[C@@H](C)[C@@H](O)c1ccccc1Cl [Compound 15, 1-(2-chlorophenyl)-(S)-1-hydroxypropyl-(S)-2-N-methylcarbamate]",42.8
9,"CNC(=O)O[C@H](C)[C@H](O)c1ccccc1Cl [Compound 22, 1-(2-chlorophenyl)-(R)-1-hydroxypropyl-(R)-2-N-methylcarbamate]",25.1
10,"C[C@H](OC(=O)NC1CC1)[C@@H](O)c1ccccc1Cl [Compound 18, 1-(2-chlorophenyl)-(S)-1-hydroxypropyl-(R)-2-N-cyclopropylcarbamate]",61.2
11,"CC(OC(N)=O)C(O)c1ccccc1Cl (racemic) [Compound 3, 1-(2-chlorophenyl)-1-hydroxypropyl-2-carbamate]",47.7

# System: male mice (ICR)
# Assay: Muscle relaxation: grip strength
# Format: in vivo
# Conditions: Mus musculus, ip; intraperitoneal, at time of maximum effect; 50% of activity vs vehicle only; read-out: MR test ED50, III = Grip strength
# Protocol: (§1) For testing, male mice (ICR) were purchased from ORIENT BIO INC. (Korea), divided into several groups with 6 mice in each group, and were adapted for 4-5 days. The mice having the weight ranging from 19 g to 26 g were employed for the test. The pharmacological effect of the test compounds on muscle relaxation was evaluated by Rotarod test, grip strength test, and muscular force (wire hang) test. All mice were adapted to the test environment at one hour before starting the tests. The pharmacological effects of all the test compounds were evaluated by administration through peritoneal cavity of the mice (10 ul/g, bw).
# A grip strength test using the test animals' forelimbs was performed using an instrument equipped with triangle ring and designed so as to easily grip with the forelimbs of experimental animals, manufactured from Ugo Basile Inc. (Ugo Basile, Model47106, Italy). The test was conducted before and after administration of the compounds to evaluate the effects thereof. […] The mouse was made to grip the rod with its forelimbs, and its tail was pulled, where the force at which the mouse detached from the rod was recorded. The instrument indicated the force in grams. All of the mice were given […] for test, and the 3 highest values among the test opportunities were selected and the mean value was used as the test result. This experimentation was conducted according to the method described in the reference, ‘Nevins et al. (1993) Quantitative grip strength assessment as a means of evaluating muscle relaxation in mice. Psychopharmacol. 110: 92-96’.
# (§2) The results of muscle relaxation activity of the phenyl carbamate compounds measured in above Experimental Examples 11.2 to 11.5 are shown in following Table 5.
row,SMILES,ED50 [mg/kg]
1,"C[C@@H](OC(N)=O)[C@H](O)c1ccccc1Cl [Compound 2, 1-(2-chlorophenyl)-(R)-1-hydroxypropyl-(R)-2-carbamate]",110
2,"CC[C@H](OC(N)=O)[C@@H](O)c1ccccc1I [Compound 67, 1-(2-iodophenyl)-(S)-1-hydroxybutyl-(S)-2-carbamate]",69.1
3,"CNC(=O)OC(C)C(O)c1ccccc1Cl (racemic) [Compound 29, 1-(2-chlorophenyl)-1-hydroxypropyl-2-N-methylcarbamate]",46
4,"C[C@H](OC(N)=O)[C@@H](O)c1ccccc1I [Compound 65, 1-(2-iodophenyl)-(S)-1-hydroxypropyl-(S)-2-carbamate]",42.9
5,"CCCNC(=O)O[C@@H](C)[C@@H](O)c1ccccc1Cl [Compound 16, 1-(2-chlorophenyl)-(S)-1-hydroxypropyl-(S)-2-N-propylcarbamate]",67.8
6,"CC(C)NC(=O)O[C@H](C)[C@H](O)c1ccccc1Cl [Compound 24, 1-(2-chlorophenyl)-(R)-1-hydroxypropyl-(R)-2-N-isopropylcarbamate]",48.8
7,"CC(C)NC(=O)O[C@@H](C)[C@@H](O)c1ccccc1Cl [Compound 17, 1-(2-chlorophenyl)-(S)-1-hydroxypropyl-(R)-2-N-isopropylcarbamate]",91.5
8,"C[C@@H](OC(=O)NC1CC1)[C@H](O)c1ccccc1Cl (single isomer, unassigned) [Compound 25]",46.1
9,"C[C@@H](OC(N)=O)[C@@H](O)c1ccccc1Cl [Compound 4, 1-(2-chlorophenyl)-(S)-1-hydroxypropyl-(R)-2-carbamate]",124
10,"C[C@@H](OC(N)=O)[C@H](O)c1ccccc1I [Compound 66, 1-(2-iodophenyl)-(R)-1-hydroxypropyl-(R)-2-carbamate]",46
11,"CNC(=O)O[C@@H](C)[C@@H](O)c1ccccc1Cl [Compound 15, 1-(2-chlorophenyl)-(S)-1-hydroxypropyl-(S)-2-N-methylcarbamate]",83.6
12,"CNC(=O)O[C@H](C)[C@H](O)c1ccccc1Cl [Compound 22, 1-(2-chlorophenyl)-(R)-1-hydroxypropyl-(R)-2-N-methylcarbamate]",28.3
13,"C[C@H](OC(=O)NC1CC1)[C@@H](O)c1ccccc1Cl [Compound 18, 1-(2-chlorophenyl)-(S)-1-hydroxypropyl-(R)-2-N-cyclopropylcarbamate]",87.4
14,"CC(OC(N)=O)C(O)c1ccccc1Cl (racemic) [Compound 3, 1-(2-chlorophenyl)-1-hydroxypropyl-2-carbamate]",72.6

# System: male mice (ICR)
# Assay: Muscle relaxation: wire hang
# Format: in vivo
# Conditions: Mus musculus; intraperitoneal, at time of maximum effect; 50% of activity vs vehicle only; read-out: MR test ED50, IV = Wire hang
# Protocol: as §1
# This experimentation was conducted using a metal wire of 30 cm in length, which was suspended between two pillars at a height of about 40 cm from the bottom covered with a soft pad. […] Each mouse was made to grip the wire using two forelimbs, and the elapse time before the mouse fell off from the wire to the pad on the bottom was recorded in seconds. Each mouse was given 5 opportunities for this test at an interval of 2 minutes period. The highest 3 records among the test opportunities were selected and the mean value was used as the test result. This experimentation was conducted according to the method described in the reference, ‘Jacqueline N. Crawley (1999) Behavioral phenotyping of transgenic and knockout mice: experimental design and evaluation of general health, sensory functions, motor abilities, and specific behavioral tests. Brain Res. 835: 18-26’.
# as §2
row,SMILES,ED50 [mg/kg]
1,"C[C@@H](OC(N)=O)[C@H](O)c1ccccc1Cl [Compound 2, 1-(2-chlorophenyl)-(R)-1-hydroxypropyl-(R)-2-carbamate]",43.3
2,"CC[C@H](OC(N)=O)[C@@H](O)c1ccccc1I [Compound 67, 1-(2-iodophenyl)-(S)-1-hydroxybutyl-(S)-2-carbamate]",26.2
3,"CNC(=O)OC(C)C(O)c1ccccc1Cl (racemic) [Compound 29, 1-(2-chlorophenyl)-1-hydroxypropyl-2-N-methylcarbamate]",38
4,"C[C@H](OC(N)=O)[C@@H](O)c1ccccc1I [Compound 65, 1-(2-iodophenyl)-(S)-1-hydroxypropyl-(S)-2-carbamate]",23.4
5,"CCCNC(=O)O[C@@H](C)[C@@H](O)c1ccccc1Cl [Compound 16, 1-(2-chlorophenyl)-(S)-1-hydroxypropyl-(S)-2-N-propylcarbamate]",16.1
6,"CC(C)NC(=O)O[C@H](C)[C@H](O)c1ccccc1Cl [Compound 24, 1-(2-chlorophenyl)-(R)-1-hydroxypropyl-(R)-2-N-isopropylcarbamate]",17.8
7,"CC(C)NC(=O)O[C@@H](C)[C@@H](O)c1ccccc1Cl [Compound 17, 1-(2-chlorophenyl)-(S)-1-hydroxypropyl-(R)-2-N-isopropylcarbamate]",41.4
8,"C[C@@H](OC(=O)NC1CC1)[C@H](O)c1ccccc1Cl (single isomer, unassigned) [Compound 25]",32.9
9,"C[C@@H](OC(N)=O)[C@@H](O)c1ccccc1Cl [Compound 4, 1-(2-chlorophenyl)-(S)-1-hydroxypropyl-(R)-2-carbamate]",40
10,"C[C@@H](OC(N)=O)[C@H](O)c1ccccc1I [Compound 66, 1-(2-iodophenyl)-(R)-1-hydroxypropyl-(R)-2-carbamate]",76.3
11,"CNC(=O)O[C@@H](C)[C@@H](O)c1ccccc1Cl [Compound 15, 1-(2-chlorophenyl)-(S)-1-hydroxypropyl-(S)-2-N-methylcarbamate]",25.4
12,"CNC(=O)O[C@H](C)[C@H](O)c1ccccc1Cl [Compound 22, 1-(2-chlorophenyl)-(R)-1-hydroxypropyl-(R)-2-N-methylcarbamate]",22.4
13,"C[C@H](OC(=O)NC1CC1)[C@@H](O)c1ccccc1Cl [Compound 18, 1-(2-chlorophenyl)-(S)-1-hydroxypropyl-(R)-2-N-cyclopropylcarbamate]",29.5
14,"CC(OC(N)=O)C(O)c1ccccc1Cl (racemic) [Compound 3, 1-(2-chlorophenyl)-1-hydroxypropyl-2-carbamate]",34

# System: male ICR mice
# Assay: MES (Maximal Electroshock Seizure) test in mice
# Conditions: Mus musculus, po, read-out: MES test (po) ED50
row,SMILES,ED50 [mg/kg]
1,"C[C@@H](OC(N)=O)[C@H](O)c1ccccc1Cl [Compound 2, 1-(2-chlorophenyl)-(R)-1-hydroxypropyl-(R)-2-carbamate]",51
2,"C[C@@H](OC(N)=O)[C@@H](O)c1ccccc1Cl [Compound 4, 1-(2-chlorophenyl)-(S)-1-hydroxypropyl-(R)-2-carbamate]",82.4
3,"CC(OC(N)=O)C(O)c1ccccc1Cl (racemic) [Compound 3, 1-(2-chlorophenyl)-1-hydroxypropyl-2-carbamate]",31.4

# Same assay, conditions: Mus musculus, po, read-out: MES test (po) Protection %
SMILES,responders at 200 mg/kg [%],responders at 100 mg/kg [%]
"CNC(=O)OC(C)C(O)c1ccccc1Cl (racemic) [Compound 29, 1-(2-chlorophenyl)-1-hydroxypropyl-2-N-methylcarbamate]",75,
"CCCNC(=O)O[C@@H](C)[C@@H](O)c1ccccc1Cl [Compound 16, 1-(2-chlorophenyl)-(S)-1-hydroxypropyl-(S)-2-N-propylcarbamate]",25,
"C[C@@H](OC(=O)NC1CC1)[C@H](O)c1ccccc1Cl (single isomer, unassigned) [Compound 25]",25,
"CNC(=O)O[C@@H](C)[C@@H](O)c1ccccc1Cl [Compound 15, 1-(2-chlorophenyl)-(S)-1-hydroxypropyl-(S)-2-N-methylcarbamate]",,75
"C[C@H](OC(=O)NC1CC1)[C@@H](O)c1ccccc1Cl [Compound 18, 1-(2-chlorophenyl)-(S)-1-hydroxypropyl-(R)-2-N-cyclopropylcarbamate]",100,

# System: male mice (ICR)
# Assay: Muscle relaxation: endurance time on rotarod rotating at accelerated speed
# Format: in vivo
# Conditions: Mus musculus, ip; intraperitoneal, at time of maximum effect; 50% of activity vs vehicle only; read-out: MR test ED50, I = Acc. Rotarod
# Protocol: as §1
# At 24 hours before testing, the mice to be tested were preliminarily trained for 5 minutes on a rod rotating at the rate of 6 revolutions per a minute. The pharmacological effect on muscle relaxation of the test compounds were evaluated by observing the mice on a rod for 5 minutes, where the rod was accelerated from 4 to 40 revolutions per a minute during the test time. The endurance time that each mouse endures on the acceleratedly rotated rod without falling off from the rod was recorded. As test time for evaluation, a maximum of 5 minutes was applied. […] This experimentation was conducted according to the method described in the reference, ‘Monville et al. (2006) Comparison of incremental and accelerating protocol of the rotarod test for the assessment of motor deficits in the 6-OHDA model. J. Neurosci. Meth. 158: 219-223’.
# as §2
row,SMILES,ED50 [mg/kg]
1,"C[C@@H](OC(N)=O)[C@H](O)c1ccccc1Cl [Compound 2, 1-(2-chlorophenyl)-(R)-1-hydroxypropyl-(R)-2-carbamate]",66.3
2,"CNC(=O)OC(C)C(O)c1ccccc1Cl (racemic) [Compound 29, 1-(2-chlorophenyl)-1-hydroxypropyl-2-N-methylcarbamate]",30.2
3,"CCCNC(=O)O[C@@H](C)[C@@H](O)c1ccccc1Cl [Compound 16, 1-(2-chlorophenyl)-(S)-1-hydroxypropyl-(S)-2-N-propylcarbamate]",48.7
4,"CC(C)NC(=O)O[C@H](C)[C@H](O)c1ccccc1Cl [Compound 24, 1-(2-chlorophenyl)-(R)-1-hydroxypropyl-(R)-2-N-isopropylcarbamate]",38.6
5,"CC(C)NC(=O)O[C@@H](C)[C@@H](O)c1ccccc1Cl [Compound 17, 1-(2-chlorophenyl)-(S)-1-hydroxypropyl-(R)-2-N-isopropylcarbamate]",73.1
6,"C[C@@H](OC(=O)NC1CC1)[C@H](O)c1ccccc1Cl (single isomer, unassigned) [Compound 25]",30
7,"C[C@@H](OC(N)=O)[C@@H](O)c1ccccc1Cl [Compound 4, 1-(2-chlorophenyl)-(S)-1-hydroxypropyl-(R)-2-carbamate]",69.3
8,"CNC(=O)O[C@@H](C)[C@@H](O)c1ccccc1Cl [Compound 15, 1-(2-chlorophenyl)-(S)-1-hydroxypropyl-(S)-2-N-methylcarbamate]",51.4
9,"CNC(=O)O[C@H](C)[C@H](O)c1ccccc1Cl [Compound 22, 1-(2-chlorophenyl)-(R)-1-hydroxypropyl-(R)-2-N-methylcarbamate]",25.7
10,"C[C@H](OC(=O)NC1CC1)[C@@H](O)c1ccccc1Cl [Compound 18, 1-(2-chlorophenyl)-(S)-1-hydroxypropyl-(R)-2-N-cyclopropylcarbamate]",59.2
11,"CC(OC(N)=O)C(O)c1ccccc1Cl (racemic) [Compound 3, 1-(2-chlorophenyl)-1-hydroxypropyl-2-carbamate]",57.1
